Assays:
Type in all cases: biochemical
wild type PKR = wild type PKR (Homo sapiens, UniProt P30613); test: PKR Mutant Assay (AC50), wild type PKR; conditions: read-out: PKR WT AC50
Protocol: (§1) • PKR or PKR mutant enzyme solution was diluted in assay buffer. 2 μL of test compound was added into wells first, and then 180 μL reaction mix was added. • Reactions mixture with test compound was assembled except for ADP, and plates were stored for 60 minutes at room temperature. • 20 uL ADP was added to start reaction at room temperature and reaction progress was measured as changes in absorbance at 340 nm wavelength at room temperature. Test Compound Preparation: • Test compound stock was made at 100× concentration in 100% DMSO (10 mM) • 1 to 3 dilutions were made for 11 points (i.e. 50 μl of first concentration added to 100 μl 100% DMSO to yield 3.33 mM, 50 μl of this added to 100 μl DMSO to yield 1.11 mM, and so forth) • 1 to 100 dilution into assay (2 μl in 200 μl) yielded starting concentration of 100 μM, decreasing 3 fold for 11 points. Assay Buffer: 100 mM KCl, 50 mM Tris 7.5, 5 mM MgCl2, 1 mM DTT, 0.03% BSA Reaction Mixture: PKR mutant enzyme: 80-400 ng/well; ADP: 0.22-1.65 mM; PEP: 0.1-0.5 mM; NADH: 180 uM; LDH: 0.5 units (Sigma#59023); DTT: 1 mM; BSA: 0.03%.

PKR wt = PKR wt (Homo sapiens, UniProt P30613); test: PKR WT Single Point Percent Activation Assay; conditions: compound at 1 μM
Protocol: PKR WT Single Point Percent Activation Assay
(§2) A compound described herein was diluted with DMSO and tested at 1 μM concentration. The enzyme was diluted in 1× Buffer: (100 mM KCl, 50 mM Tris 7.5, 5 mM MgCl2, 1 mM DTT, 0.03% BSA). 2 μL of compound solution was first added into wells, and then 180 μL of enzyme solution was added. Assays were assembled except for ADP, and plates were stored for 60 minutes at RT. 20 μL ADP was added to start the assay and assay output was evaluated using OD340 at SpectraMax. The assay was run at room temperature.
Final Concentration: PKR wt (100 ng/well), Tris pH 7.5 (50 mM), KCl (100 mM), MgCl2 (5 mM), ADP (0.48 mM), PEP (0.15 mM), NADH (180 μM), LDH (0.5 units, Sigma 59023), DTT (1 mM) and BSA (0.03%).

PKR R532W [1] = target: T1, PKR R532W (Homo sapiens, UniProt P30613, R532W); test: PKR R532W Single Point Percent Activation Assay; conditions: compound at 1 μM; for activation at 1 µM: read-out: % Act. R532W
Protocol: PKR R532W Single Point Percent Activation Assay
as §2
Final Concentration: PKR R532W (100 ng/well), Tris pH 7.5 (50 mM), KCl (100 mM), MgCl2 (5 mM), ADP (0.36 mM), PEP (0.1 mM), NADH (180 μM), LDH (0.5 units, Sigma 59023), DTT (1 mM) and BSA (0.03%).

PKR R532W [2] = target: T1, PKR R532W; test: PKR Mutant Assay (AC50), PKR R532W
Protocol: as §1

PKR T384W [3] = target: T2, PKR T384W (Homo sapiens, UniProt P30613, T384W); test: PKR Mutant Assay (AC50), PKR T384W
Protocol: as §1

PKR R479H = PKR R479H (Homo sapiens, UniProt P30613, R479H); test: PKR Mutant Assay (AC50), PKR R479H
Protocol: as §1

PKR R510Q [4] = target: T3, PKR R510Q (Homo sapiens, UniProt P30613, R510Q); test: PKR R510Q Single Point Percent Activation Assay; conditions: compound at 1 μM; for activation at 1 µM: read-out: % Act. R510Q
Protocol: PKR R510Q Single Point Percent Activation Assay
as §2
Final Concentration: PKR R510Q (40 ng/well), Tris pH 7.5 (50 mM), KCl (100 mM), MgCl2 (5 mM), ADP (0.2 mM), PEP (0.11 mM), NADH (180 μM), LDH (0.5 units, Sigma 59023), DTT (1 mM) and BSA (0.03%).

PKR G364D = PKR G364D (Homo sapiens, UniProt P30613, G364D); test: PKR Mutant Assay (AC50), PKR G364D
Protocol: as §1

PKR G332S = PKR G332S (Homo sapiens, UniProt P30613, G332S); test: PKR Mutant Assay (AC50), PKR G332S
Protocol: as §1

PKR R510Q [5] = target: T3, PKR R510Q; test: PKR Mutant Assay (AC50), PKR R510Q
Protocol: as §1

PKR T384W [6] = target: T2, PKR T384W; test: PKR T384W Single Point Percent Activation Assay; conditions: compound at 1 μM; for activation at 1 µM: read-out: % Act. T384W
Protocol: PKR T384W Single Point Percent Activation Assay
as §2, with “180 μL enzyme solution” for “180 μL of enzyme solution”
Final Concentration: PKR T384W soluble (300 ng/well), Tris pH 7.5 (50 mM), KCl (100 mM), MgCl2 (5 mM), ADP (0.08 mM), PEP (0.23 mM), NADH (180 μM), LDH (0.5 units, Sigma 59023), DTT (1 mM) and BSA (0.03%).

T1 sequence (P30613 whole entry R532W): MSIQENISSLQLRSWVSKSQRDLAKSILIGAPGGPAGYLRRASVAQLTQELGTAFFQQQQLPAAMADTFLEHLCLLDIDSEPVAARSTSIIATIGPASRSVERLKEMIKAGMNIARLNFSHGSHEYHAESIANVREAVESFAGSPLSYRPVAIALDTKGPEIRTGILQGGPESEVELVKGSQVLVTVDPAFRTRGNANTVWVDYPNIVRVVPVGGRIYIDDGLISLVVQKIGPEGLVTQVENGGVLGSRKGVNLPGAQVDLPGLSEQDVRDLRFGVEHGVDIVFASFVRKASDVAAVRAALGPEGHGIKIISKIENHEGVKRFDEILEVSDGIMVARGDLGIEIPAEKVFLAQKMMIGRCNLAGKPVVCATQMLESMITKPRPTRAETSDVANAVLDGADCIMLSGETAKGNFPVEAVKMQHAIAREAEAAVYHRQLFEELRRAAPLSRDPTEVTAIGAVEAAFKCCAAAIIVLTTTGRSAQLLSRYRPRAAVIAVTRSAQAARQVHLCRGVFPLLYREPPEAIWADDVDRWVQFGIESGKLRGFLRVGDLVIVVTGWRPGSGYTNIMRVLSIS
Chain of PKR wt (P30613 whole entry): as the sequence (P30613 whole entry R532W) above, with W532R counted along it
Chain of wild type PKR (P30613 whole entry): as the sequence (P30613 whole entry R532W) above, with W532R counted along it
Chain of PKR G332S (P30613 whole entry G332S): as the sequence (P30613 whole entry R532W) above, with G332S, W532R counted along it
Chain of PKR R479H (P30613 whole entry R479H): as the sequence (P30613 whole entry R532W) above, with R479H, W532R counted along it
T3 sequence (P30613 whole entry R510Q): as the sequence (P30613 whole entry R532W) above, with R510Q, W532R counted along it
T2 sequence (P30613 whole entry T384W): as the sequence (P30613 whole entry R532W) above, with T384W, W532R counted along it
Chain of PKR G364D (P30613 whole entry G364D): as the sequence (P30613 whole entry R532W) above, with G364D, W532R counted along it

| SMILES | AC50 (wild type PKR) | activation at 1 µM (PKR wt) | activation at 1 µM (PKR R532W [1]) | AC50 (PKR R532W [2]) | AC50 (PKR T384W [3]) | AC50 (PKR R479H) | activation at 1 µM (PKR R510Q [4]) | AC50 (PKR G364D) | AC50 (PKR G332S) | AC50 (PKR R510Q [5]) | activation at 1 µM (PKR T384W [6]) | % Act. WT (PKR wt) | % Act. R532W (PKR R532W [1]) | % Act. R510Q (PKR R510Q [4]) | % Act. T384W (PKR T384W [6]) |
| --- | --- | --- | --- | --- | --- | --- | --- | --- | --- | --- | --- | --- | --- | --- | --- |
| CSc1cc2c(s1)c1cnn(Cc3cccc(O)c3)c(=O)c1n2C | < 0.1 µM | 101 to 500% | 101 to 500% | < 0.1 µM | < 0.1 µM | < 0.1 µM | > 500% | < 0.1 µM | < 0.1 µM | < 0.1 µM | 101 to 500% |  |  |  |  |
| Cn1c2cc([S+](C)[O-])sc2c2cnn(Cc3ccccc3F)c(=O)c21 (centres unmarked) | 0.101 to 0.5 µM | 101 to 500% | 101 to 500% | > 0.5 µM | > 0.5 µM | 0.101 to 0.5 µM | 101 to 500% | 0.101 to 0.5 µM | > 0.5 µM | 0.101 to 0.5 µM | 101 to 500% |  |  |  |  |
| COc1cccc(Cn2ncc3c4sc([S+](C)[O-])cc4n(C)c3c2=O)c1 (centres unmarked) | < 0.1 µM | 1 to 100% | 101 to 500% | < 0.1 µM | < 0.1 µM | < 0.1 µM | 101 to 500% | < 0.1 µM | < 0.1 µM | < 0.1 µM | 1 to 100% |  |  |  |  |
| Cn1c2cc([S+](C)[O-])sc2c2cnn(Cc3cccc(O)c3)c(=O)c21 (centres unmarked) | < 0.1 µM | 101 to 500% | 101 to 500% | < 0.1 µM | < 0.1 µM | < 0.1 µM | 101 to 500% | < 0.1 µM | < 0.1 µM | < 0.1 µM | 101 to 500% |  |  |  |  |
| Nc1cccc(S(=O)(=O)N2CCCN(S(=O)(=O)c3ccc4c(c3)OCCO4)CC2)c1 [drawing 17] |  |  |  |  |  |  |  |  |  |  |  | B (a % activation at 1 μM of from 101 to 500) | A (a % activation at 1 μM of from 1 to 100) | B (a % activation at 1 μM of from 101 to 500) | B (a % activation at 1 μM of from 101 to 500) |
| CCCCCn1ncc2c3sc(C)cc3n(C)c2c1=O |  | 101 to 500% | 101 to 500% |  |  |  | 101 to 500% |  |  |  | 101 to 500% |  |  |  |  |

Now from value to compound, other results behind:

| AC50 (wild type PKR) | activation at 1 µM (PKR wt) | activation at 1 µM (PKR R532W [1]) | AC50 (PKR R532W [2]) | AC50 (PKR T384W [3]) | AC50 (PKR R479H) | activation at 1 µM (PKR R510Q [4]) | AC50 (PKR G364D) | AC50 (PKR G332S) | AC50 (PKR R510Q [5]) | activation at 1 µM (PKR T384W [6]) | SMILES | % Act. WT (PKR wt) | % Act. R532W (PKR R532W [1]) | % Act. R510Q (PKR R510Q [4]) | % Act. T384W (PKR T384W [6]) |
| --- | --- | --- | --- | --- | --- | --- | --- | --- | --- | --- | --- | --- | --- | --- | --- |
|  | 101 to 500% | 101 to 500% |  |  |  | 101 to 500% |  |  |  | 101 to 500% | COc1cc(F)c(S(=O)(=O)N2CCN(S(=O)(=O)c3cccc(N)c3)CC2)c(F)c1 |  |  |  |  |
|  | 1 to 100% | 101 to 500% |  |  |  | 1 to 100% |  |  |  | 1 to 100% | Nc1cccc(S(=O)(=O)N2CCN(S(=O)(=O)c3ccc4c(c3)OCCO4)CC2)c1 |  |  |  |  |
|  | 101 to 500% | 101 to 500% |  |  |  | 101 to 500% |  |  |  | 101 to 500% | O=S(=O)(c1ccc2c(c1)OCCO2)N1CCCN(S(=O)(=O)c2c(F)cccc2F)CC1 |  |  |  |  |
|  | 101 to 500% | 101 to 500% |  |  |  | 101 to 500% |  |  |  | 101 to 500% | COc1cc(F)c(S(=O)(=O)N2CCCN(S(=O)(=O)c3cccc(N)c3)CC2)c(F)c1 |  |  |  |  |
|  | 101 to 500% | 101 to 500% |  |  |  | 101 to 500% |  |  |  | 101 to 500% | Nc1cccc(S(=O)(=O)N2CCN(S(=O)(=O)c3c(F)cccc3F)CC2)c1 |  |  |  |  |
|  | 101 to 500% | 1 to 100% |  |  |  | 101 to 500% |  |  |  | 1 to 100% | O=S(=O)(c1ccc2c(c1)OCCO2)N1CCN(S(=O)(=O)c2c(F)cccc2F)CC1 |  |  |  |  |
|  | 101 to 500% |  |  |  |  | 101 to 500% |  |  |  | 101 to 500% | Nc1cccc(S(=O)(=O)N2CCCN(S(=O)(=O)c3ccc4c(c3)OCCO4)CC2)c1 [drawing 23] |  | B (a % activation at 1 μM of from 101 to 500) |  |  |

Source: patent US9403792B2, “Methods of using pyruvate kinase activators” (AGIOS PHARMACEUTICALS, INC, priority 2011, dated 2016)
